From patent US9701670B2, “Pyrazolyl-ureas as kinase inhibitors” (RESPIVERT LIMITED, priority 2013, dated 2017)

Legend:
BDF1 mice = assay: (C) TNBS-induced colitis in mice; format: in vivo, mouse; design: TNBS Ulcer grade / TNBS LP inflammation: scale not given here; conditions: mice, 2.5 mg/kg oral BID, 2 days
Experimental: Non-fasted, 10-12 week old, male BDF1 mice are dosed by oral gavage twice daily with either vehicle (5 mL/kg), reference item (Budesonide 2.5 mg/kg) or test compound (1, 5 or 50 mg/kg) one day before (Day −1) stimulation of the inflammatory response by treatment with 2,4,6-trinitrobenzenesulphonic acid (TNBS) (15 mg/mL in 50% ethanol/50% saline). On Day 0 of the study TNBS (200 μL) is administered intra-colonically via a plastic catheter followed by BID dosing of the vehicle, reference or test compound for 2 or 4 days. During the study animals are weighed every day and stool observations are made and recorded as a score, based on stool consistency. At the time of sacrifice on Day 2 (or Day 4) the large intestine is removed and the length and weight recorded. Sections of the colon are taken for either MPO analysis to determine neutrophil infiltration or for histopathology involving scoring to determine disease severity.

[1] = system: Differentiated U937 cells; assay: (l) Cell viability: MTT assay; format: cell-based, human; conditions: 1 μg/mL
In short: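 MTT read-out (1 h, absorbance 550 nm) on d-U937 cells after pre-incubation with 1 or 10 μg/mL compound under two regimes: 4 h, 5% FCS, or 24 h, 10% FCS RPMI1640. Values are percent loss of viability relative to vehicle (0.5% DMSO), so increases are reported as negative.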

[2] = target: T1, p38 MAPKα isoform (MAPK14) (Homo sapiens (Human), UniProt Q16539); assay: p38 MAPKα enzyme inhibition (FRET, Z-LYTE), Method 2; format: biochemical; conditions: Method 2, different laboratory (Table 4a2)
T1 sequence (Q16539 whole entry, canonical isoform): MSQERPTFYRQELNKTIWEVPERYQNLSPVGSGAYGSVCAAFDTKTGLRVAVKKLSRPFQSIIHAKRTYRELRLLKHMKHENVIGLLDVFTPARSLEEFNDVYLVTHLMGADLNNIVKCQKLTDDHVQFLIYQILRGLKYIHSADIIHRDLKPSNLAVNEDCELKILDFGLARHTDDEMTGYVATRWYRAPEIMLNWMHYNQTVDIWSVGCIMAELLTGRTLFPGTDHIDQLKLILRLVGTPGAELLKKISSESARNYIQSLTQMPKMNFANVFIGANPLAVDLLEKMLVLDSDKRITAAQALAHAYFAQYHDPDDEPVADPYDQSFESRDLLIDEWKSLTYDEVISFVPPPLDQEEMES
Experimental: The enzyme inhibitory activities of compounds disclosed herein are determined by FRET using synthetic peptides labelled with both donor and acceptor fluorophores (Z-LYTE, Invitrogen Ltd., Paisley, UK).
The inhibitory activities of test compounds against the p38 MAPKα isoform (MAPK14: Invitrogen), are evaluated indirectly by determining the level of activation/phosphorylation of the down-stream molecule, MAPKAP-K2. The p38 MAPKα protein (80 ng/mL, 2.5 μL) is mixed with the test compound (2.5 μL of either 4 μg/mL, 0.4 μg/mL, 0.04 μg/mL or 0.004 μg/mL) for 2 hr at RT. […] The mixture is incubated for 1 hr at RT. Development reagent (protease, 5 μL) is added for 1 hr prior to detection in a fluorescence microplate reader (Varioskan® Flash, ThermoFisher Scientific).
In all cases, the site-specific protease cleaves non-phosphorylated peptide only and eliminates the FRET signal. Phosphorylation levels of each reaction are calculated using the ratio of coumarin emission (donor) over fluorescein emission (acceptor), for which high ratios indicate high phosphorylation and low ratios indicate low phosphorylation levels.

[3] = system: β-catenin in d-U937 cells; assay: (m) Accumulation of β catenin in d-U937 cells; format: cell-based, human
Experimental: U937 cells, a human monocytic cell line, are differentiated into macrophage-type cells by incubation with PMA; (100 ng/mL) for between 48 to 72 hr. The cells are then incubated with either final concentrations of test compound or vehicle for 18 hr. The induction of β-catenin by the test compounds is stopped by replacing the media with 4% formaldehyde solution. Endogenous peroxide activity is neutralised by incubating with quenching buffer (100 μL, 0.1% sodium azide, 1% H2O2 in PBS with 0.05% Tween-20) for 20 min. The cells are washed with washing buffer (200 μL; PBS containing 0.05% Tween-20) and incubated with blocking solution (200 μL; 5% milk in PBS) for 1 hr, re-washed with washing buffer (200 μL) and then incubated overnight with anti-β-catenin antibody solution (50 μL) in 1% BSA/PBS (BD, Oxford, UK).
After washing with washing buffer (3×200 μL; PBS containing 0.05% Tween-20), cells are incubated with an HRP-conjugated secondary antibody solution (100 μL) in 1% BSA/PBS (Dako, Cambridge, UK) and the resultant signal is determined colourimetrically (OD: 450 nm with a reference wavelength of 655 nm) using TMB substrate (50 μL; R&D Systems, Abingdon, UK). This reaction is stopped by addition of 1N H2SO4 solution (50 μL). Cells are then washed with washing buffer and 2% crystal violet solution (50 μL) is applied for 30 min. After washing with washing buffer (3×200 μL), 1% SDS (100 μL) is added to each well and the plates are shaken lightly for 1 hr prior to measuring the absorbance at 595 nm (Varioskan® Flash, Thermo-Fisher Scientific).
The measured OD450-655 readings are corrected for cell number by dividing the OD450-655 by the OD595 readings. […] A signal less than 0.15 (15%) of that observed for the standard control is designated as “-ve”.

[4] = target: T1, p38 MAPKα isoform (MAPK14); assay: p38 MAPKα enzyme inhibition (FRET, Z-LYTE), Method 1; format: biochemical; conditions: Method 1 (Table 4a1)
Balb/c mice = assay: (A) LPS-induced neutrophil accumulation in mice; format: in vivo, mouse; conditions: 1.75 μg/mouse
Experimental: […] At T=0, mice are placed into an exposure chamber and exposed to LPS (7.0 mL, 0.5 mg/mL solution in PBS) for 30 min). After a further 8 hr the animals are anesthetized, their tracheas cannulated and BALF extracted by infusing and then withdrawing from their lungs 1.0 mL of PBS via the tracheal catheter. Total and differential white cell counts in the BALF samples are measured using a Neubaur haemocytometer. Cytospin smears of the BALF samples are prepared by centrifugation at 200 rpm for 5 min at RT and stained using a DiffQuik stain system (Dade Behring). Cells are counted using oil immersion microscopy. Data for neutrophil numbers in BAL are shown as mean±S.E.M. (standard error of the mean). The percentage inhibition of neutrophil accumulation is calculated for each treatment relative to vehicle treatment.

mice = assay: Mouse cigarette smoke model (macrophage and neutrophil accumulation in BALF); format: in vivo; conditions: cigarette smoke model, 1.75 μg/mouse (35 μL, bid, i.n.)
Source text: The result of treatment with compound Example (8) on macrophage and neutrophil accumulation in BALF in the mouse cigarette smoke model was investigated (Table 5).

| SMILES | IC50 [2] | % β-catenin induction ([3]; 1 μg/mL test compound) | % β-catenin induction ([3]; 5 μg/mL test compound) | other results |
| --- | --- | --- | --- | --- |
| CCCC1O[C@@H]2C[C@H]3[C@@H]4CCC5=CC(=O)C=C[C@]5(C)[C@H]4[C@@H](O)C[C@]3(C)[C@]2(C(=O)CO)O1 (some centres unmarked) [Budesonide, reference compound] | – | – | – | TNBS LP inflammation (BDF1 mice): 2.5 ± 0.4; TNBS Ulcer grade (BDF1 mice): 2.9 ± 0.6 |
| C#Cc1cc(Nc2nccc(Oc3ccc(NC(=O)Nc4cc(C(C)(C)C(F)(F)F)nn4-c4ccc(C)cc4)c4ccccc34)n2)cc(C(=O)NCCN2CCOCC2)c1 [Example 76, 3-Ethynyl-N-(2-morpholinoethyl)-5-((4-((4-(3-(1-(p-tolyl)-3-(1,1,1-trifluoro-2-methylpropan-2-yl)-1H-pyrazol-5-yl)ureido)naphthalen-1-yl)oxy)pyrimidin-2-yl)amino)-benzamide] | 233 nM | −3% | −1% | – |
| C#Cc1cc(Nc2nccc(Oc3ccc(NC(=O)Nc4cc(C(C)(C)C)nn4-c4ccc(C)cc4)c4ccccc34)n2)cc(C(=O)N[C@@H](C)CN2CCOCC2)c1 [Example 81, (S)-3-((4-((4-(3-(3-(tert-Butyl)-1-(p-tolyl)-1H-pyrazol-5-yl)ureido)naphthalen-1-yl)oxy)pyrimidin-2-yl)amino)-5-ethynyl-N-(1-morpholinopropan-2-yl)benzamide] | 138 nM | 3% | −3% | – |
| C#Cc1cc(Nc2nccc(Oc3ccc(NC(=O)Nc4cc(C(C)(C)C)nn4-c4ccc(C)cc4)c4ccccc34)n2)cc(C(=O)N[C@H](C)CN2CCOCC2)c1 [Example 83, (R)-3-((4-((4-(3-(3-(tert-Butyl)-1-(p-tolyl)-1H-pyrazol-5-yl)ureido)naphthalen-1-yl)oxy)pyrimidin-2-yl)amino)-5-ethynyl-N-(1-morpholinopropan-2-yl)benzamide] | 261 nM | −3% | −6% | – |
| C#Cc1cc(Nc2nccc(Oc3ccc(NC(=O)Nc4cc(C(C)(C)C)nn4-c4ccc(OC)cc4)c4ccccc34)n2)cc(C(=O)N[C@@H](C)COC)c1 [Example 85, (S)-3-((4-((4-(3-(3-(tert-Butyl)-1-(4-methoxyphenyl)-1H-pyrazol-5-yl)ureido)-naphthalen-1-yl)oxy)pyrimidin-2-yl)amino)-5-ethynyl-N-(1-methoxypropan-2-yl)-benzamide] | 158 nM | 7% | 3% | % β-catenin induction ([3]; 10 μg/mL test compound): 6% |
| C#Cc1cc(Nc2nccc(Oc3ccc(NC(=O)Nc4cc(C(C)C)nn4-c4ccc(C)cc4)c(Cl)c3Cl)n2)cc(C(=O)NCCN2CCOCC2)c1 [Example 87, 3-((4-(2,3-Dichloro-4-(3-(3-isopropyl-1-(p-tolyl)-1H-pyrazol-5-yl)ureido)-phenoxy)pyrimidin-2-yl)amino)-5-ethynyl-N-(2-morpholinoethyl)benzamide] | 408 nM | – | – | – |
| CCC(=O)O[C@]1(C(=O)SCF)[C@H](C)C[C@H]2[C@@H]3C[C@H](F)C4=CC(=O)C=C[C@]4(C)[C@@]3(F)[C@@H](O)C[C@@]21C [fluticasone propionate, reference compound] | – | – | – | inhibition of LPS-induced neutrophil accumulation (Balb/c mice): > 80%; inhibition of neutrophil or macrophage accumulation into airways (mice): did not inhibit |

Further lines, with some results ahead:

| IC50 [2] | SMILES | % β-catenin induction ([3]; 1 μg/mL test compound) | % β-catenin induction ([3]; 5 μg/mL test compound) | other results |
| --- | --- | --- | --- | --- |
| 50 nM | COc1cc(Nc2cc(Oc3ccc(NC(=O)Nc4cc(C(C)(C)C)nn4-c4ccc(C)cc4)c4ccccc34)ccn2)cc(C(=O)NCCN2CCOCC2)c1 [Example 1, 3-((4-((4-(3-(3-(tert-Butyl)-1-(p-tolyl)-1H-pyrazol-5-yl)ureido)naphthalen-1-yl)oxy)pyridin-2-yl)amino)-5-methoxy-N-(2-morpholinoethyl)benzamide] | −7% | −6% | Cell viability at time point in d-U937 cells 4 h [1]: −ve (−ve and +ve indicate that the value is below and above respectively, the no significant effect threshold, defined as 30% inhibition at 1 μg/mL at the time point indicated.); Cell viability at time point in d-U937 cells 24 h [1]: −ve (−ve and +ve indicate that the value is below and above respectively, the no significant effect threshold, defined as 30% inhibition at 1 μg/mL at the time point indicated.); IC50 [4]: 40 nM |
| 104 nM | COCCNC(=O)c1cc(Nc2nccc(Oc3ccc(NC(=O)Nc4cc(C(C)C)nn4-c4ccc(OC)cc4)c4ccccc34)n2)cc(OC)c1 [Example 11, 3-((4-((4-(3-(3-Isopropyl-1-(4-methoxyphenyl)-1H-pyrazol-5-yl)ureido)naphthalen-1-yl)oxy)pyrimidin-2-yl)amino)-5-methoxy-N-(2-methoxyethyl)benzamide] | −1% | 1% | Cell viability at time point in d-U937 cells 4 h [1]: −ve (−ve and +ve indicate that the value is below and above respectively, the no significant effect threshold, defined as 30% inhibition at 1 μg/mL at the time point indicated.); Cell viability at time point in d-U937 cells 24 h [1]: −ve (−ve and +ve indicate that the value is below and above respectively, the no significant effect threshold, defined as 30% inhibition at 1 μg/mL at the time point indicated.); % β-catenin induction ([3]; 10 μg/mL test compound): 1%; IC50 [4]: 25 nM |
| 47 nM | C#Cc1cc(Nc2nccc(Oc3ccc(NC(=O)Nc4cc(C(C)(C)C)nn4-c4ccc(OC)nc4)c4ccccc34)n2)cc(C(=O)NCCN2CCOCC2)c1 [Example 73, 3-((4-((4-(3-(3-(tert-Butyl)-1-(6-methoxypyridin-3-yl)-1H-pyrazol-5-yl)ureido)naphthalen-1-yl)oxy)pyrimidin-2-yl)amino)-5-ethynyl-N-(2-morpholinoethyl)benzamide] | 17% | −7% | % β-catenin induction ([3]; 10 μg/mL test compound): 7% |
| 49 nM | C#Cc1cc(Nc2nccc(Oc3ccc(NC(=O)Nc4cc(C(C)(C)C)nn4-c4ccc(C)cc4)c4ccccc34)n2)cc(C(=O)NCCN2CCOCC2)c1 [Example 75, 3-((4-((4-(3-(3-(tert-Butyl)-1-(p-tolyl)-1H-pyrazol-5-yl)ureido)naphthalen-1-yl)oxy)pyrimidin-2-yl)amino)-5-ethynyl-N-(2-morpholinoethyl)benzamide] | −14% | −10% | – |
